The target of the test is T1, Porcine gastric H+/K+-ATPase (Sus scrofa, UniProt P19156).
T1 construct: The gastric vesicles were collected from interface on 0.25 M sucrose layer containing 7% Ficoll; from tissue; host or cells: mucous membrane of fresh porcine stomachs (gastric vesicles)
Nature of the test: Ion-leaky porcine gastric H+/K+-ATPase inhibition. It counts as biochemical. To be noted: ion-leaky vesicles, 5 mM KCl, pH 6.4, 37° C., 30 minutes. The method, then: The porcine gastric vesicles for Porcine gastric H^+/K^+-ATPase inhibition assays were prepared from mucous membrane in fresh porcine stomachs by homogenization with a tight-fitted polytetrafluoroethylene (Teflone®) homogenizer in 0.25 M sucrose at 4° C. The crude pellet was removed with centrifugation at 20,000 g for 30 min. Then supernatant was centrifuged at 100,000 g for 30 min. The resulting pellet was re-suspended in 0.25 M sucrose, and then subjected to density gradient centrifugation at 132,000 g for 90 min. The gastric vesicles were collected from interface on 0.25 M sucrose layer containing 7% Ficoll™ PM400(Amersham Biosciences). This procedure was performed in a cold room.
Ion-leaky porcine gastric H^+/K^+-ATPase-inhibition was measured according to the modified method described in Biochemical Pharmacology, 1988, 37, 2231-2236.
The isolated vesicles were lyophilized, and then kept in deep-freezer until use. For enzyme assay, lyophilized vesicles were reconstituted with 3 mM MgSO4 containing 40 mM Bis-tris (pH 6.4 at 37° C.).
Enzyme reaction was performed incubating 5 mM KCl, 3 mM Na2ATP, 3 mM MgSO4 and 1.0 μg of reconstituted vesicles for 30 minutes at 37° C. in a final 60 μl of reaction mixture (40 mM Bis-tris, pH 6.4) with or without the test compound. Enzyme reaction was stopped by adding 10% sodium dodecyl sulphate (SDS). Released inorganic phosphate from ATP was detected by incubation with mixture of 1 part of 35 mM ammonium molybdate tetrahydrate in 15 mM Zinc acetate hydrate and 4 parts of 10% ascorbic acid (pH 5.0), resulting in phosphomolybdate, which has optical density at 750 nm.

T1 sequence (P19156 2-1034 limits assumed): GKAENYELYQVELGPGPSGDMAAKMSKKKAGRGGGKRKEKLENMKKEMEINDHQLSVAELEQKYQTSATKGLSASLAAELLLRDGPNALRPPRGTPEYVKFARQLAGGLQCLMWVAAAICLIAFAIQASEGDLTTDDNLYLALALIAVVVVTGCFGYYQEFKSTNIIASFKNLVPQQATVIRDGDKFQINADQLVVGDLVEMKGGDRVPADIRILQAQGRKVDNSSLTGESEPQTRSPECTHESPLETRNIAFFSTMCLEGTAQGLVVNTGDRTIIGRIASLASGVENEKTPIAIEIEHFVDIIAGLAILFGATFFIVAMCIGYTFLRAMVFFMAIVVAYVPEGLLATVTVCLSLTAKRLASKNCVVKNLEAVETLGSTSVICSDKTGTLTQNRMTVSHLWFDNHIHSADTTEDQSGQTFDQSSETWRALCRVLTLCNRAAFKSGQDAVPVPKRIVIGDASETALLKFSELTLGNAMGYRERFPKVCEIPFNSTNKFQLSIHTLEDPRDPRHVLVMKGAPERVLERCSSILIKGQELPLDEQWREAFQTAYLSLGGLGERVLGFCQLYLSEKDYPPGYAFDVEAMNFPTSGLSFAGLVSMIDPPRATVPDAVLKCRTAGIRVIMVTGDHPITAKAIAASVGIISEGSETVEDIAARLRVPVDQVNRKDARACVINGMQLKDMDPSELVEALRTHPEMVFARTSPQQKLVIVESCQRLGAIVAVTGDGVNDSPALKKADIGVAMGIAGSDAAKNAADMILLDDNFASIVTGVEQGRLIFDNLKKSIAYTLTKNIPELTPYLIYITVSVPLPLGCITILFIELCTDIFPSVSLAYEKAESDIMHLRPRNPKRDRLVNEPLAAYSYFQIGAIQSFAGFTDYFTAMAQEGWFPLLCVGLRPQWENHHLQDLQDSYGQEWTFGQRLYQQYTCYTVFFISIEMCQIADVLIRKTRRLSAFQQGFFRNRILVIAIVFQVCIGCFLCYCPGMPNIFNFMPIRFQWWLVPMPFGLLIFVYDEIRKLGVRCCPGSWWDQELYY
T1 sequence (P18434 whole entry partner): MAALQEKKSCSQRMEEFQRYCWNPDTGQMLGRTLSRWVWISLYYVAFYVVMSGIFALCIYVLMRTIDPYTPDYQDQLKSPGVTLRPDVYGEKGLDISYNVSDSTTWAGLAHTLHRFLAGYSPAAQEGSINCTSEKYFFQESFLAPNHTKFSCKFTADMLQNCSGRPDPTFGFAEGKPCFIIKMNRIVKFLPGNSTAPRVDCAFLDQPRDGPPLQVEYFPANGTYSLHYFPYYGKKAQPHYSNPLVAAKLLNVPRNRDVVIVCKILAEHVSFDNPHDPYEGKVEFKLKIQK

For the compound `Cc1nc2c(NC3CCOc4cccc(F)c43)cc(C(=O)N(C)C)cn2c1C` (single isomer, unassigned) [Example 10-2, 8-[(5-Fluoro-3,4-dihydro-2H-chromen-4-yl)amino]-N,N,2,3-tetramethylimidazo[1,2-a]pyridine-6-carboxamide], the IC50 – broadly, the concentration that inhibits the measured activity by half – came out at 51.1 nM.

`Cc1nc2c(NC3CCOc4ccccc43)cc(C(=O)N(C)C)cn2c1C` (single isomer, unassigned; (+)) [Example 1-3, (+)-8-(3,4-Dihydro-2H-chromen-4-ylamino)-N,N,2,3-tetramethylimidazo[1,2-a]pyridine-6-carboxamide] registered a half-inhibitory concentration (IC50) of 27.8 nM. On to `Cc1nc2c(NC3CCOc4cccc(Cl)c43)cc(C(=O)N(C)C)cn2c1C` (single isomer, unassigned) [Example 18-2, 8-[(5-Chloro-3,4-dihydro-2H-chromen-4-yl)amino]-N,N,2,3-tetramethylimidazo[1,2-a]pyridine-6-carboxamide], for which half-maximal inhibition (IC50) was put at 300 nM. In turn, `Cc1nc2c(NC3CCOc4cc(F)ccc43)cc(C(=O)N(C)C)cn2c1C` (single isomer, unassigned) [Example 6-2, 8-[(7-Fluoro-3,4,dihydro-2H-chromen-4-yl)amino]-N,N,2,3-tetramethylimidazo[1,2-a]pyridine-6-carboxamide] showed an IC50 of 40.9 nM. On to `Cc1nc2c(NC3CCOc4cccc(F)c43)cc(C(=O)N(C)CCO)cn2c1C` (racemic) [Example 11-1, 8-[(5-Fluoro-3,4-dihydro-2H-chromen-4-yl)amino]-N-(2-hydroxyethyl)-N,2,3-trimethylimidazo[1,2-a]pyridine-6-carboxamide], for which the IC50 stood at 48.6 nM.

`Cc1ccc2c(c1)OCCC2Nc1cc(C(=O)N(C)CCO)cn2c(C)c(C)nc12` (single isomer, unassigned) [Example 16-2, N-(2-Hydroxyethyl)-N,2,3-trimethyl-8-[(7-methyl-3,4-dihydro-2H-chromen-4-yl)amino]imidazo[1,2-a]pyridine-6-carboxamide]: the half-maximal inhibitory concentration (IC50) amounted to 100 nM. For the compound `Cc1nc2c(NC3CCOc4cccc(Cl)c43)cc(C(=O)N(C)CCO)cn2c1C` (single isomer, unassigned) [Example 19-3, 8-[(5-Chloro-3,4-dihydro-2H-chromen-4-yl)amino]-N-(2-hydroxyethyl)-N,2,3-trimethylimidazo[1,2-a]pyridine-6-carboxamide], the IC50 was 500 nM. `Cc1nc2c(NC3CCOc4cc(F)ccc43)cc(C(=O)N(C)C)cn2c1C` (single isomer, unassigned) [Example 6-3, 8-[(7-Fluoro-3,4,dihydro-2H-chromen-4-yl)amino]-N,N,2,3-tetramethylimidazo[1,2-a]pyridine-6-carboxamide]: the IC50 worked out at 15.7 nM. The same measure for `Cc1nc2c(NC3CCOc4cccc(Cl)c43)cc(C(=O)N(C)C)cn2c1C` (racemic) [Example 18-1, 8-[(5-Chloro-3,4-dihydro-2H-chromen-4-yl)amino]-N,N,2,3-tetramethylimidazo[1,2-a]pyridine-6-carboxamide]: 350 nM; for `Cc1nc2c(NC3CCOc4cc(F)cc(F)c43)cc(C(=O)N(C)CCO)cn2c1C` (single isomer, unassigned) [Example 9-3, 8-[(5,7-Difluoro-3,4-dihydro-2H-chromen-4-yl)amino]-N-(2-hydroxyethyl)-N,2,3-trimethylimidazo[1,2-a]pyridine-6-carboxamide]: 53.2 nM.

Turning to `Cc1nc2c(NC3CCOc4ccc(F)cc43)cc(C(=O)N(C)C)cn2c1C` (single isomer, unassigned) [Example 12-2, 8-[(6-Fluoro-3,4-dihydro-2H-chromen-4-yl)amino]-N,N,2,3-tetramethylimidazo[1,2-a]pyridine-6-carboxamide], the IC50 amounted to 197 nM. Under `Cc1nc2c(NC3CCOc4c(F)cccc43)cc(C(=O)N(C)C)cn2c1C` (single isomer, unassigned) [Example 14-2, 8-[(8-Fluoro-3,4-dihydro-2H-chromen-4-yl)amino]-N,N,2,3-tetramethylimidazo[1,2-a]pyridine-6-carboxamide] stands 120 nM; under `Cc1nc2c(NC3CCOc4ccc(F)cc43)cc(C(=O)N(C)C)cn2c1C` (racemic) [Example 12-1, 8-[(6-Fluoro-3,4-dihydro-2H-chromen-4-yl)amino]-N,N,2,3-tetramethylimidazo[1,2-a]pyridine-6-carboxamide], 20.8 nM. The same measure for `Cc1nc2c(NC3CCOc4c(F)cccc43)cc(C(=O)N(C)C)cn2c1C` (single isomer, unassigned) [Example 14-3, 8-[(8-Fluoro-3,4-dihydro-2H-chromen-4-yl)amino]-N,N,2,3-tetramethylimidazo[1,2-a]pyridine-6-carboxamide]: 170 nM; for `Cc1nc2c(NC3CCOc4cccc(F)c43)cc(C(=O)N(C)CCO)cn2c1C` (single isomer, unassigned) [Example 11-3, 8-[(5-Fluoro-3,4-dihydro-2H-chromen-4-yl)amino]-N-(2-hydroxyethyl)-N,2,3-trimethylimidazo[1,2-a]pyridine-6-carboxamide]: 101 nM; for `Cc1nc2c(NC3CCOc4cccc(Cl)c43)cc(C(=O)N(C)C)cn2c1C` (single isomer, unassigned) [Example 18-3, 8-[(5-Chloro-3,4-dihydro-2H-chromen-4-yl)amino]-N,N,2,3-tetramethylimidazo[1,2-a]pyridine-6-carboxamide]: 240 nM. Under `Cc1cccc2c1C(Nc1cc(C(=O)N(C)C)cn3c(C)c(C)nc13)CCO2` (single isomer, unassigned) [Example 17-3, N,N,2,3-Tetramethyl-8-[(5-methyl-3,4-dihydro-2H-chromen-4-yl)amino]imidazo[1,2-a]pyridine-6-carboxamide] stands 91 nM. Compound `Cc1nc2c(NC3COCc4ccccc43)cc(C(=O)N(C)C)cn2c1C` (single isomer, unassigned; (-)) [Example 3-2, (−)-8-(3,4-Dihydro-1H-isochromen-4-ylamino)-N,N,2,3-tetramethylimidazo[1,2-a]pyridine-6-carboxamide] gave an IC50 of 125 nM.

For the compound `Cc1cccc2c1C(Nc1cc(C(=O)N(C)C)cn3c(C)c(C)nc13)CCO2` (racemic) [Example 17-1, N,N,2,3-Tetramethyl-8-[(5-methyl-3,4-dihydro-2H-chromen-4-yl)amino]imidazo[1,2-a]pyridine-6-carboxamide], half-maximal inhibition (IC50) was put at 64 nM. The same measure for `Cc1nc2c(NC3COCc4ccccc43)cc(C(=O)N(C)CCO)cn2c1C` (racemic) [Example 4-1, 8-(3,4-Dihydro-1H-isochromen-4-ylamino)-N-(2-hydroxyethyl)-N,2,3-trimethylimidazo[1,2-a]pyridine-6-carboxamide]: 87.1 nM; for `Cc1nc2c(NC3CCOc4cc(F)cc(F)c43)cc(C(=O)N(C)C)cn2c1C` (racemic) [Example 8-1, 8-[(5,7-Difluoro-3,4-dihydro-2H-chromen-4-yl)amino]-N,N,2,3-tetramethylimidazo[1,2-a]pyridine-6-carboxamide]: 20 nM. `Cc1nc2c(NC3CCOc4ccc(F)cc43)cc(C(=O)N(C)CCO)cn2c1C` (racemic) [Example 13-1, 8-[(6-Fluoro-3,4-dihydro-2H-chromen-4-yl)amino]-N-(2-hydroxyethyl)-N,2,3-trimethylimidazol[1,2-a]pyridine-6-carboxamide]: the half-maximal inhibitory concentration (IC50) worked out at 250 nM. Under `Cc1nc2c(NC3CCOc4cc(F)ccc43)cc(C(=O)N(C)CCO)cn2c1C` (racemic) [Example 7-1, 8-[(7-Fluoro-3,4-dihydro-2H-chromen-4-yl)amino]-N-(2-hydroxyethyl)-N,2,3-trimethylimidazol[1,2-a]pyridlne-6-carboxamide] stands 26.6 nM; under `Cc1nc2c(NC3COCc4ccccc43)cc(C(=O)N(C)CCO)cn2c1C` (single isomer, unassigned; (+)) [Example 4-3, (+)-8-(3,4-Dihydro-1H-isochromen-4-ylamino)-N-(2-hydroxyethyl)-N,2,3-trimethylimidazo[1,2-a]pyridine-6-carboxamide], 112 nM; under `Cc1ccc2c(c1)OCCC2Nc1cc(C(=O)N(C)CCO)cn2c(C)c(C)nc12` (racemic) [Example 16-1, N-(2-Hydroxyethyl)-N,2,3-trimethyl-8-[(7-methyl-3,4-dihydro-2H-chromen-4-yl)amino]imidazo[1,2-a]pyridine-6-carboxamide], 331 nM. Under `Cc1nc2c(NC3CCOc4ccc(F)cc43)cc(C(=O)N(C)CCO)cn2c1C` (single isomer, unassigned) [Example 13-2, 8-[(6-Fluoro-3,4-dihydro-2H-chromen-4-yl)amino]-N-(2-hydroxyethyl)-N,2,3-trimethylimidazol[1,2-a]pyridine-6-carboxamide] stands 1100 nM.

`Cc1nc2c(NC3CCOc4cc(F)cc(F)c43)cc(C(=O)N(C)C)cn2c1C` (single isomer, unassigned) [Example 8-3, 8-[(5,7-Difluoro-3,4-dihydro-2H-chromen-4-yl)amino]-N,N,2,3-tetramethylimidazo[1,2-a]pyridine-6-carboxamide] yielded an IC50 of 49 nM.

Source of the values: patent publication US20090291977A1, “Chromane Derivatives Useful As Acid Pump Antagonists” (priority 2004, published 2009).
